# Test: Case report: menstrual cramps
# Assay type: in vivo, human
# Details: person, single dose
# Protocol: The anti-inflammatory effect of the 1117 fraction is evidenced by the following: • 1. A person experienced moderate to severe muscle pain after exercising. The person was in otherwise good health, but would consume four Advil after playing tennis. […] A person in good health and with regular menstruation typically experienced a day during menstruation with moderate to severe menstrual cramps. On one occasion, the painful cramps were so severe that they were not relieved by 1 hour heat or 1000 mg Tylenol. […] The relief happened within 5-10 minutes after consumption, and lasted 8 hours. • 3. A person in good health experienced severe, throbbing muscle pain after a 1-hour session of deep tissue massage. The pain was relieved within 30 minutes after consuming a single dose of 500 mg the 1117 fraction.
structure (smiles),measurement,value
CC(=O)Nc1ccc(O)cc1 [Tylenol],effect on severe menstrual cramps and pain,not relieved

# Reference: US9370537B2, “Compositions and methods for reducing inflammation” (Cerule, LLC, priority 2009, dated 2016)
